Data taken from US20050043280A1, “Use of active ingredients having a mu-opioid receptor agonist action and an opiod receptor antognist action, as combination drugs for the treatment of cancer” (priority 2001, published 2005).

How the values were obtained:
[1] = test system: human MCF-7 breast cancer cells; experiment: Cell proliferation test (FIG. 3A); type: cell-based; details: for proliferation of MCF-7 cells compared to the untreated control: 100 or 500 μmol DAMGO, 100 μmol naloxone, 500 μmol DAMGO+100 μmol naloxone
From the text: FIG. 3A Proliferation of MCF-7 cells in vitro after treatment with 100 μmol DAMGO (solid triangles), 500 μmol DAMGO (solid squares)(left), 100 μmol naloxone (open circles) or the mixture containing 500 μmol DAMGO+100 μmol naloxone (open triangles)(right) versus untreated control cells (solid circles). Means±SEM from 4-6 repeat experiments.

MCF-7 cells [2] = experiment: Cytotoxic effects, survival rate of the cells (FIG. 3B); details: standardized to untreated control cells = 100%; combinations with 100 μmol DAMGO
From the text: The same cell line was used to determine the cytotoxic effects of these active ingredients by determining the rate of survival of the cells (FIG. 3B). […] TNFα was used as a positive control.
The survival rate was standardized to the number of untreated control cells representing 100%. Means±SEM from 4 repeat experiments.

MCF-7 cells [3] = experiment: DNA cleavage rate with apoptosis assay kit (FIG. 4); type: cell-based, human; details: 500 μmol; incubation for 24 hours
Method: In order to characterize apoptosis (cell death) in more detail, a commercial apoptosis assay kit that is in common use in science was used to measure the rate of DNA cleavage (FIG. 4).
FIG. 4 DNA cleavage rate after incubation of MCF-7 cells for 24 hours with the active ingredients at the dosages indicated on the abscissa. Means±SEM from 6 independent experiments. DNA cleavage was measured by assaying the mono- and oligonucleosomes with an apoptosis detection kit containing antihistones and anti-DNA antibodies.

[4] = Development of the body weight during treatment (FIG. 1B); details: 3 weeks of treatment as in FIG. 1A
Method: In an established pharmacological animal model, naked mice (NMRI-nu/nu; Harlan, Borchen) received a subcutaneous injection containing a cell suspension (5×10^6 cells in 300 μl per mouse) of human breast carcinoma cells (MCF-7 cell line).
A total of 5×10^6 cells were injected subcutaneously per mouse. […] The animals were treated with 10 mg/kg β-estradiol valerate (i.m.) one day before and 7 and 14 days after the injection of tumor cells. […] Tumor volume=(long diameter×short diameter^2)/2.
FIG. 1B Development of the body weight during treatment. Treatment as in 1A.

MCF-7 cells [5] = experiment: Flow cytometry of annexin V and 7-AAD binding, apoptosis rate (FIG. 6); type: cell-based, human
MCF-7 cells [6] = details: 24 hours after treatment; 0.5, 1.0, 2.0 mmol; combination 0.5 mmol morphine+0.1 mmol naloxone and 1 mmol+1 mmol
MCF-7 cells [7] = details: cited from earlier work
[8] = 1 mmol, 24 hours after treatment (not shown)
[9] = 2 mmol, 24 hours after treatment
[10] = 3 mmol, 24 hours after treatment

Row | Molecule | proliferation of MCF-7 cells compared to the untreated control [1] | time at which the maximal number of cells was attained ([1]; DAMGO-treated cultures) | cell death in treated cultures ([1]; between 48 and 72 hours) | survival rate of MCF-7 cells (cytotoxic effect) (MCF-7 cells [2]) | rate of DNA cleavage compared to the untreated control (MCF-7 cells [3]) | body weight [4] | number of cells in late apoptosis (MCF-7 cells [5]; [8]) | number of cells in late apoptosis (MCF-7 cells [5]; [9]) | number of cells in late apoptosis (MCF-7 cells [5]; [10]) | number of cells in G1 phase (block of cell cycle from G1 to S phase) (MCF-7 cells [6]) | apoptosis in MCF-7 cells (positive control, known effect) (MCF-7 cells [7])
1 | C[C@@H](NC(=O)[C@@H](N)Cc1ccc(O)cc1)C(=O)NCC(=O)N(C)[C@@H](Cc1ccccc1)C(=O)NCCO [DAMGO, (D-Ala2, N-Methyl-Phe4, Gly-ol5)enkephalin] | reduced the cell division cycle substantially in a concentration-dependent fashion | 48 h | a fraction of the cells on DAMGO treatment died | concentration-dependent positive effect on the survival rate | increase significantly | – | – | – | – | – | –
2 | CN1CC[C@]23c4c5ccc(O)c4O[C@H]2[C@@H](O)C=C[C@H]3[C@H]1C5 [morphine] | – | – | – | – | – | weight loss | no longer detectable | less pronounced | clear increase in the number of cells in late apoptosis | concentration-dependent increase in the number of cells in G1 phase | –
3 | TNFα | – | – | – | – | – | – | – | – | – | – | induce apoptosis
4 | C=CCN1CC[C@]23c4c5ccc(O)c4O[C@H]2C(=O)CC[C@@]3(O)[C@H]1C5 [naloxone] | growth-inhibitory effect | – | – | concentration-dependent positive effect on the survival rate | increase significantly | increased slightly | no longer detectable | less pronounced | clear increase in the number of cells in late apoptosis | block the cell cycle in a similar fashion | –
